Laboratory results reported in patent publication US11905294B2, “Imidazo[1,5-a]pyrazine derivatives as PI3Kδ inhibitors” (BEIGENE, LTD., priority 2017, dated 2024).

What was measured:
Type in all cases: biochemical
[1] = molecular target: PI3K (p110δ/p85α) (Homo sapiens, UniProt O00329); experiment: PI3Kδ assay (ADP-Glo Kinase Assay); settings: recombinant enzyme; IC50 (nM) or max inhibition (%) at 0.5 μM
Description: Compounds disclosed herein were tested for inhibition of PI3Kδ kinase activity using commercial ADP-Glo™ Kinase Assay (Promega Corporation) and following the manufacture's instruction. Briefly, recombinant PI3K (p110δ/p85α) enzyme, lipid kinase substrate and a serial dilution of compounds disclosed herein were incubated for 0.5 hr at room temperature. ATP was added to initiate the kinase reaction. After incubation for 1 hr at room temperature, ADP-Glo™ reagent was added to terminate the kinase reaction and deplete the remaining ATP. After incubation for 1 hr at room temperature, kinase detection reagent was added to simultaneously convert ADP to ATP and allow the newly synthesized ATP to be measured using a luciferase/luciferin reaction. After incubation for 0.5 hr at room temperature, the luminescence generated was measured on a PHERAstar FS plate reader (BMG LABTECH). The residual enzyme activity in presence of increasing concentrations of compounds was calculated based on the luminescence. The IC50 for each compound was derived from fitting the data to the four-parameter logistic equation by Graphpad Prism software.

[2] = molecular target: PI3K (p110α/p85α) (Homo sapiens, UniProt P42336); experiment: PI3Kα assay (ADP-Glo Kinase Assay); settings: recombinant enzyme; IC50 (nM) or max inhibition (%) at 0.5 μM
Sequence of PI3K (p110α/p85α) (P42336 whole entry): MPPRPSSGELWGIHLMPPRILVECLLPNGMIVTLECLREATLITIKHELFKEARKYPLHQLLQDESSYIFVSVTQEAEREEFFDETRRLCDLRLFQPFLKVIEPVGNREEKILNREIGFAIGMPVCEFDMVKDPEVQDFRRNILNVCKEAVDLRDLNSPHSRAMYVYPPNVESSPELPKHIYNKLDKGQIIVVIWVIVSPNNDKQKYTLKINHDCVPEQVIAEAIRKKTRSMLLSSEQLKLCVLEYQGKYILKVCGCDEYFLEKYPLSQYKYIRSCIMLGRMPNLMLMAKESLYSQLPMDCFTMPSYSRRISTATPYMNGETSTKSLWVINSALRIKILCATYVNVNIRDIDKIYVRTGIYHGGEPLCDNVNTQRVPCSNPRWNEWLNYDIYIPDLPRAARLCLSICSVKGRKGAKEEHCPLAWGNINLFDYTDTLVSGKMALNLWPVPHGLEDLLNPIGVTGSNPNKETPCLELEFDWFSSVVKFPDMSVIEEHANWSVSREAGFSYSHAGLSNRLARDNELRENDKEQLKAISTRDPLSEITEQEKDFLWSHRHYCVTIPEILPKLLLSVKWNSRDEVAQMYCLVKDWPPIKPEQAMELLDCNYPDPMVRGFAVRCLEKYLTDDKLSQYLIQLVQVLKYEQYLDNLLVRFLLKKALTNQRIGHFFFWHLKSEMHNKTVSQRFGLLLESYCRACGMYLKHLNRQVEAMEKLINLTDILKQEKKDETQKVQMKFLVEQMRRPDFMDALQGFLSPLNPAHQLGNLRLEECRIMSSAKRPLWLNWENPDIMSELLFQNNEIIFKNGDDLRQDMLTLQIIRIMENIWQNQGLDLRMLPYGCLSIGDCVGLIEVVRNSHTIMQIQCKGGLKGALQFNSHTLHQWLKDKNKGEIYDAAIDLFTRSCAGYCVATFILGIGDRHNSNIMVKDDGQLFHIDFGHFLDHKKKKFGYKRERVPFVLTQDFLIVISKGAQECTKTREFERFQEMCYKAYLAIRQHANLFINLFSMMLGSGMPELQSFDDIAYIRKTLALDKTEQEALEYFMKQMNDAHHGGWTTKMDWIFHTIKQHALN
Sequence of PI3K (p110α/p85α) (P27986 whole entry partner): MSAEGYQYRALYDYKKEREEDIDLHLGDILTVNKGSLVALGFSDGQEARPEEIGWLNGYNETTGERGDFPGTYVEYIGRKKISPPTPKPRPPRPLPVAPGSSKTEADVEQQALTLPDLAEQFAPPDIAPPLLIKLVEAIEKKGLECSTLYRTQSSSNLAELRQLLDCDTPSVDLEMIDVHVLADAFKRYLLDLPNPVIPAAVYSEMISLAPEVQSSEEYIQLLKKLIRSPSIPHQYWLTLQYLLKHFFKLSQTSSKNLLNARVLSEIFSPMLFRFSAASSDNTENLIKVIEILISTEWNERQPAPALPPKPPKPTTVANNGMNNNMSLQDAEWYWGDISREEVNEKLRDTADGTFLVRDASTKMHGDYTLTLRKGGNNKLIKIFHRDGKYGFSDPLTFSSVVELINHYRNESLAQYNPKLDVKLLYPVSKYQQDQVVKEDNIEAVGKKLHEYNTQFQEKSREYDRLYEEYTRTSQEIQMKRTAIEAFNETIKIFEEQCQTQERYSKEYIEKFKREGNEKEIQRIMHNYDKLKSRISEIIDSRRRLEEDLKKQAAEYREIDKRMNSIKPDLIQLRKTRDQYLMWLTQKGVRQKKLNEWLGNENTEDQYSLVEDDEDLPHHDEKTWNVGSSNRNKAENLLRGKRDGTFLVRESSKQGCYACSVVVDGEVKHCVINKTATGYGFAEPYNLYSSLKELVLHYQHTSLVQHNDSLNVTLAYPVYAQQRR

[3] = molecular target: PI3K (p110β/p85α) (Homo sapiens, UniProt P42338); experiment: PI3Kβ assay (ADP-Glo Kinase Assay); settings: read-out: Enzyme activity IC50 PI3Kβ
Sequence of PI3K (p110β/p85α) (P42338 whole entry): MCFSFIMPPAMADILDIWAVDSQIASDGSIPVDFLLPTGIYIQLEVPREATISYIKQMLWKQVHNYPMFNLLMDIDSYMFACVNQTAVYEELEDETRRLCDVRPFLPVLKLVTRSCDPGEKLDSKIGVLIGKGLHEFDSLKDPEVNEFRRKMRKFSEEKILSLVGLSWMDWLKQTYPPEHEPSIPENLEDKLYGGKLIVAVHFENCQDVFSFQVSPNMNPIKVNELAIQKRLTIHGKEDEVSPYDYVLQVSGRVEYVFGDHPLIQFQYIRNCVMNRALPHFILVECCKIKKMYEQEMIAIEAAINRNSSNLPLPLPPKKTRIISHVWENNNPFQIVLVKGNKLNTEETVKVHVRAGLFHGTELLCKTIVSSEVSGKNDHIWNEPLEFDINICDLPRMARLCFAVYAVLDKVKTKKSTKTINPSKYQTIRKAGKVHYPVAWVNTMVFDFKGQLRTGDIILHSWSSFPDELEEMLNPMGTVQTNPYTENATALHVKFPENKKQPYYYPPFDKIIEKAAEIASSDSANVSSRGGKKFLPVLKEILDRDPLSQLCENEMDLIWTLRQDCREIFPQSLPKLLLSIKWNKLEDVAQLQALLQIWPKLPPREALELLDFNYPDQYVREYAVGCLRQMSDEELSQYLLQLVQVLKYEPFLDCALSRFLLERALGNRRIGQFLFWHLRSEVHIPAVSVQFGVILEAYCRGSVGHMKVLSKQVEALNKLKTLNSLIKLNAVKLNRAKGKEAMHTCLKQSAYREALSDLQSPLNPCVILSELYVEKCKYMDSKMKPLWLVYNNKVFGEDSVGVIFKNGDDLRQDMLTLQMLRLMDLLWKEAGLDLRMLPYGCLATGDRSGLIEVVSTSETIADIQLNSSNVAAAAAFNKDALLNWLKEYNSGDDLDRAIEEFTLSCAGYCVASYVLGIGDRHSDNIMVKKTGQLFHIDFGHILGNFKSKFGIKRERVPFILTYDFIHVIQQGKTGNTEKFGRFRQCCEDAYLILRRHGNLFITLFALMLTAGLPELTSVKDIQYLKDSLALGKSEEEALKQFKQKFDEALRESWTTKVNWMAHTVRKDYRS
Sequence of PI3K (p110β/p85α) (P27986 whole entry partner): as the sequence (P27986 whole entry partner) above

[4] = molecular target: PI3K (p110γ) (Homo sapiens, UniProt P48736); experiment: PI3Kγ assay (ADP-Glo Kinase Assay); settings: recombinant enzyme; IC50 (nM) or max inhibition (%) at 0.5 μM
Sequence of PI3K (p110γ) (P48736 whole entry): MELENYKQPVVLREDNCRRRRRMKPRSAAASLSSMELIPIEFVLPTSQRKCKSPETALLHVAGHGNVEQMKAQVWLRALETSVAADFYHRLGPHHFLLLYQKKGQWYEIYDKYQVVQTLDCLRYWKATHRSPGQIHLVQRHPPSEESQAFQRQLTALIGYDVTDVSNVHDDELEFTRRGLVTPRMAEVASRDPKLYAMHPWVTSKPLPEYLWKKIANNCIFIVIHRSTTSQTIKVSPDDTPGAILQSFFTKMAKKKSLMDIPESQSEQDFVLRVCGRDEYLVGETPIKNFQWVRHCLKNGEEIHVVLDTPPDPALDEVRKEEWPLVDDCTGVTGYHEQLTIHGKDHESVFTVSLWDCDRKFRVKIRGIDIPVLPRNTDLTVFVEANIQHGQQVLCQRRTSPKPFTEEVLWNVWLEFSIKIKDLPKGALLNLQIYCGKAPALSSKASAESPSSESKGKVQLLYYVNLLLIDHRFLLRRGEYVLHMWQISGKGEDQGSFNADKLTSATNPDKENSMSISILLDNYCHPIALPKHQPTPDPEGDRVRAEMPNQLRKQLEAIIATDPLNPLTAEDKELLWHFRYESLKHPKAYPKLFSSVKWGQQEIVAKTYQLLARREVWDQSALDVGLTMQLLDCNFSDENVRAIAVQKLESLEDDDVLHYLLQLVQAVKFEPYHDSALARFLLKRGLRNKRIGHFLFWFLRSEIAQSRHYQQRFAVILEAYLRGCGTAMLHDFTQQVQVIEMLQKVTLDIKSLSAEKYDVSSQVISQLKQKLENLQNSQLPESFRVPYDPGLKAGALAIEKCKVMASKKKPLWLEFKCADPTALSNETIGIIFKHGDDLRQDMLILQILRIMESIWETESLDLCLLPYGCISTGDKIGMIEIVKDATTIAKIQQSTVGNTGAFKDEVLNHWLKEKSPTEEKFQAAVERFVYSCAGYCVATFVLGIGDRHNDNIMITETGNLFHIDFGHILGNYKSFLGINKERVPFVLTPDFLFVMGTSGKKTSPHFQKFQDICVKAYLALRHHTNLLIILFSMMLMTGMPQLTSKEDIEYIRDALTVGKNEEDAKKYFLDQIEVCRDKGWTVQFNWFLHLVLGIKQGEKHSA

Sequence of PI3K (p110δ/p85α) (O00329 whole entry): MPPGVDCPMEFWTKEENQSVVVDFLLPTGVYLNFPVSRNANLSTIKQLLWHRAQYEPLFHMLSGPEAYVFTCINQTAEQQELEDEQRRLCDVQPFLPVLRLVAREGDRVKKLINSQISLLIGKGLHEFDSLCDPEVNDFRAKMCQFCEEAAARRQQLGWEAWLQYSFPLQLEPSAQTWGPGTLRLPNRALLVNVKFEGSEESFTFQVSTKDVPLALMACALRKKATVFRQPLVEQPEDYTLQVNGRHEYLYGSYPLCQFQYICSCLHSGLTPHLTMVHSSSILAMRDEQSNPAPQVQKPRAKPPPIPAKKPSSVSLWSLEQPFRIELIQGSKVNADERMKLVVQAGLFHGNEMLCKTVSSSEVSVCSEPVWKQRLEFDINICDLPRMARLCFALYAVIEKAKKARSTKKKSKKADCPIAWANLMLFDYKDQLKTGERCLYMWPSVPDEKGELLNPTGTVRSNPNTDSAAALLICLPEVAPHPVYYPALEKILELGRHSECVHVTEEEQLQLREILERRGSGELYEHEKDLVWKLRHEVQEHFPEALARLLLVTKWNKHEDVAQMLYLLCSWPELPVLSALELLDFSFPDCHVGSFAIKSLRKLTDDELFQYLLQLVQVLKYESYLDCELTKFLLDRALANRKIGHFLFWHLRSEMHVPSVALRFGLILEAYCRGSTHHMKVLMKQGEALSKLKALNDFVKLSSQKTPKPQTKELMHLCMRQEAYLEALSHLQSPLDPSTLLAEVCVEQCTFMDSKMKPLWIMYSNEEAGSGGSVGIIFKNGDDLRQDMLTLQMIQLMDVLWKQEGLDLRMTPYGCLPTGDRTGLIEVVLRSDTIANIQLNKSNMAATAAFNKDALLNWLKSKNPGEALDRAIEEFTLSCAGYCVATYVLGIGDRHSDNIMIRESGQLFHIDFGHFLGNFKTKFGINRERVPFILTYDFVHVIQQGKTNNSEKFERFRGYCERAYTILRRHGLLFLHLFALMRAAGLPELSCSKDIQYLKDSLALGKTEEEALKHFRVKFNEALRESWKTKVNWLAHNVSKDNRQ
Sequence of PI3K (p110δ/p85α) (P27986 whole entry partner): as the sequence (P27986 whole entry partner) above

SMILES	IC50 [1] [nM]	IC50 [2] [nM]	IC50 [3] [µM]	IC50 [4] [nM]
COC1CCN(C(=O)c2c(F)c(Cl)cc([C@H](C)c3nc(C)c4c(N)nccn34)c2OC(C)C)CC1 [Compound 19, (S)-(3-(1-(8-amino-1-methylimidazo[1,5-a]pyrazin-3-yl)ethyl)-5-chloro-6-fluoro-2-isopropoxyphenyl)(4-methoxypiperidin-1-yl)methanone]	2	33000	60	10000
CO[C@@H]1CCCN(C(=O)c2c(F)c(Cl)cc([C@H](C)c3nc(C)c4c(N)nccn34)c2OC(C)C)C1 [Compound 69, (3-((S)-1-(8-amino-1-methylimidazo[1,5-a]pyrazin-3-yl)ethyl)-5-chloro-6-fluoro-2-isopropoxyphenyl)((R)-3-methoxypiperidin-1-yl)methanone]	2	> 50000	> 50	5200
Cc1nc([C@@H](C)c2cc(Cl)c(F)c(C(=O)N3CC4(CCOC4)C3)c2OC(C)C)n2ccnc(N)c12 [Compound 68, (S)-(3-(1-(8-amino-1-methylimidazo[1,5-a]pyrazin-3-yl)ethyl)-5-chloro-6-fluoro-2-isopropoxyphenyl)(6-oxa-2-azaspiro[3.4]octan-2-yl)methanone]	1.7	40000	23	4600
Cc1nc(C(C)c2cc(Cl)c(F)c(C(=O)N3CCC(F)(F)CC3)c2OC(C)C)n2ccnc(N)c12 (single isomer, unassigned) [Compound 13A]	3	20000	> 50	9300
Cc1nc([C@@H](C)c2cc(Cl)c(F)c(C(=O)NCC3(O)CC3)c2OC(C)C)n2ccnc(N)c12 [Compound 66, (S)-3(1-(8-amino-1-methylimidazo[1,5-a]pyrazin-3-yl)ethyl)-5-chloro-6-fluoro-N-((1-hydroxycyclopropyl)methyl)-2-isopropoxybenzamide]	2.2	14000	12	3400
Cc1nc([C@@H](C)c2cc(Cl)c(F)c(C(=O)N[C@H](C)c3ccnc(C(F)(F)F)c3)c2OC(C)C)n2ccnc(N)c12 [Compound 59B, 3((S)-1-(8-amino-1-methylimidazo[1,5-a]pyrazin-3-yl)ethyl)-5-chloro-6-fluoro-2-isopropoxy-N-((R)-1-(2-(trifluoromethyl)pyridin-4-yl)ethyl)benzamide]	1.5	14000	26	2800
CNC(=O)c1c(F)c(Cl)cc([C@H](C)c2nc(C)c3c(N)nccn23)c1OC(C)C [Compound 27, (S)-3-(1-(8-amino-1-methylimidazo[1,5-a]pyrazin-3-yl)ethyl)-5-chloro-6-fluoro-2-isopropoxy-N-methylbenzamide]	0.93	32000	3	3900
Cc1nc([C@@H](C)c2cc(Cl)c(F)c(C(=O)NCC3CC3)c2OC(C)C)n2ccnc(N)c12 [Compound 42, (S)-3-(1-(8-amino-1-methylimidazo[1,5-a]pyrazin-3-yl)ethyl)-5-chloro-N-(cyclopropylmethyl)-6-fluoro-2-isopropoxybenzamide]	1.2	36000	21	4800
Cc1nc([C@@H](C)c2cc(Cl)c(F)c(C(=O)NC[C@@H]3CCOC3)c2OC(C)C)n2ccnc(N)c12 [Compound 35, 3-((S)-1-(8-amino-1-methylimidazo[1,5-a]pyrazin-3-yl)ethyl)-5-chloro-6-fluoro-2-isopropoxy-N-4(((S)-tetrahydrofuran-3-yl)methyl)benzamide]	1.3	46000	19	6000
Cc1nc([C@@H](C)c2cc(Cl)c(F)c(C(=O)N[C@H]3CCC[C@@H]3O)c2OC(C)C)n2ccnc(N)c12 [Compound 37, 3-((S)-1-(8-amino-1-methylimidazo[1,5-a]pyrazin-3-yl)ethyl)-5-chloro-6-fluoro-2-isopropoxy-N-((1S,2S)-2-hydroxycyclopentyl)benzamide]	0.56	11000	11	2500
CCOCC1(NC(=O)c2c(F)c(Cl)cc([C@H](C)c3nc(C)c4c(N)nccn34)c2OC(C)C)CC1 [Compound 15, (S)-3-(1-(8-amino-1-methylimidazo[1,5-a]pyrazin-3-yl)ethyl)-5-chloro-N-(1-(ethoxymethyl)cyclopropyl)-6-fluoro-2-isopropoxybenzamide]	1.8	36000	> 50	6700
Cc1nc(C(C)c2cc(Cl)c(F)c(C(=O)N3CCOCC3)c2OC(C)C)n2ccnc(N)c12 (stereo not shown) [Compound 4, (3-(1-(8-amino-1-methylimidazo[1,5-a]pyrazin-3-yl)ethyl)-5-chloro-6-fluoro-2-isopropoxyphenyl)(morpholino)methanone]	1.9	25000	24	3100
Cc1nc([C@@H](C)c2cc(Cl)c(F)c(C(=O)N[C@@H]3CC[C@@H](O)C3)c2OC(C)C)n2ccnc(N)c12 [Compound 53, 3-((S)-1-(8-amino-1-methylimidazo[1,5-a]pyrazin-3-yl)ethyl)-5-chloro-6-fluoro-N-((1R,3R)-3-hydroxycyclopentyl)-2-isopropoxybenzamide]	0.68	14000	11	2400
Cc1nc([C@@H](C)c2cc(Cl)c(F)c(C(=O)NC[C@H](C)O)c2OC(C)C)n2ccnc(N)c12 [Compound 57, 3-((S)-1-(8-amino-1-methylimidazo[1,5-a]pyrazin-3-yl)ethyl)-5-chloro-6-fluoro-N-((S)-2-hydroxypropyl)-2-isopropoxybenzamide]	1.1	18000	12	4900
Cc1nc([C@@H](C)c2cc(Cl)c(F)c(C(=O)NCCN(C)C)c2OC(C)C)n2ccnc(N)c12 [Compound 16, (S)-3-(1-(8-amino-1-methylimidazol[1,5-a]pyrazin-3-yl)ethyl)-5-chloro-N-(2-(dimethylamino)ethyl)-6-fluoro-2-isopropoxybenzamide]	4	20000	17	11000
Cc1nc([C@@H](C)c2cc(Cl)c(F)c(C(=O)N[C@H]3CC[C@@H](O)CC3)c2OC(C)C)n2ccnc(N)c12 [Compound 62, 3((S)-1-(8-amino-1-methylimidazo[1,5-a]pyrazin-3-yl)ethyl)-5-chloro-6-fluoro-N-((cis)-4-hydroxycyclohexyl)-2-isopropoxybenzamide]	1.4	17000	29	9000
CCNC(=O)c1c(F)c(Cl)cc([C@H](C)c2nc(C)c3c(N)nccn23)c1OC(C)C [Compound 28, (S)-3-(1-(8-amino-1-methylimidazo[1,5-a]pyrazin-3-yl)ethyl)-5-chloro-6-fluoro-2-isopropoxy-N-ethyl-benzamide]	1.2	24000	6.8	4800
Cc1nc(C(C)c2cc(Cl)c(F)c(C(=O)NC[C@@H](C)O)c2OC(C)C)n2ccnc(N)c12 (stereo partly drawn) [Compound 9, 3-(1-(8-amino-1-methylimidazo[1,5-a]pyrazin-3-yl)ethyl)-5-chloro-6-fluoro-N-((R)-2-hydroxypropyl)-2-isopropoxybenzamide]	2.9	43000	18	9200
Cc1nc([C@@H](C)c2cc(Cl)c(F)c(C(=O)NC[C@H]3CCOC3)c2OC(C)C)n2ccnc(N)c12 [Compound 34, 3-((S)-1-(8-amino-1-methylimidazo[1,5-a]pyrazin-3-yl)ethyl)-5-chloro-6-fluoro-2-isopropoxy-N-(((R)-tetrahydrofuran-3-yl)methyl)benzamide]	1.4	36000	11	3200
Cc1nc([C@@H](C)c2cc(Cl)c(F)c(C(=O)N[C@@H]3CCC[C@H]3O)c2OC(C)C)n2ccnc(N)c12 [Compound 58, 3-((S)-1-(8-amino-1-methylimidazo[1,5-a]pyrazin-3-yl)ethyl)-5-chloro-6-fluoro-N-((1R,2R)-2-hydroxycyclopentyl)-2-isopropoxybenzamide]	2.2	14000	16	2800
Cc1nc([C@@H](C)c2cc(Cl)c(F)c(C(=O)N[C@H]3CCCOC3)c2OC(C)C)n2ccnc(N)c12 [Compound 45, 3-((S)-1-(8-amino-1-methylimidazol[1,5-a]pyrazin-3-yl)ethyl)-5-chloro-6-fluoro-2-isopropoxy-N-((S)-tetrahydro-2H-pyran-3-yl)benzamide]	1.1	16000	32	2800
Cc1nc([C@@H](C)c2cc(Cl)c(F)c(C(=O)N3C[C@H](C)O[C@@H](C)C3)c2OC(C)C)n2ccnc(N)c12 [Compound 43, (3-((S)-1-(8-amino-1-methylimidazo[1,5-a]pyrazin-3-yl)ethyl)-5-chloro-6-fluoro-2-isopropoxyphenyl)((2S,6S)-2,6-dimethylmorpholino)methanone]	2.2	21000	> 50	3400
